Test results taken from US20250114424A1, “PLANT EXTRACT-BASED COMPOSITION AND ITS USE FOR TREATING GLUCOSE METABOLISM DISORDERS” (ESSERRE PHARMA SRL, priority 2021, published 2025).
Each block holds one compound with its values, some of them ahead of it.

What was measured:
[1] = cited from earlier work
[2] = test system: subjects with type II diabetes mellitus; settings: 500 mg daily for 6 weeks; cited from earlier work
[3] = in vivo; cited from earlier work
[4] = test system: semi-professional cyclists; settings: single dose of 500 mg; cited from earlier work
[5] = test system: rats with streptozocin-induced diabetes; settings: 40 mg/kg for 30 days; cited from earlier work
incidence of diabetes = settings: pharmacological treatment vs lifestyle changes (58%); cited from earlier work
[6] = test system: adult individuals with dysglycaemia (baseline blood glucose between 100 and 125 mg/dL); experiment: Clinical evaluation of the efficacy of the composition: double-blind, placebo-controlled pilot clinical study, 12 weeks; format: in vivo, humans
Experimental: A single-centre, […], double-blind, placebo-controlled, pilot clinical study was conducted to evaluate the efficacy of the composition object of the present invention on humans in reducing insulin resistance-related risk factors. The study was carried out in accordance with the guidelines of the Helsinki Declaration and approved by the Ethics Committee of the Hospital. 100 adult individuals of both sexes were enrolled (47 women and 53 men, aged 20 to 75 years) with dysglycaemia (baseline blood glucose between 100 and 125 mg/dL on at least two consecutive occasions), in primary prevention for cardiovascular disease.
Exclusion criteria: dysglycaemia secondary to pathological or iatrogenic causes, systemic diseases associated with dysglycaemia, uncompensated dysthyroidism, treatment with drugs potentially interacting with glucose metabolism (for example corticosteroids, atypical antipsychotics).
The subjects enrolled were randomized into 5 groups, each consisting of 20 individuals: • Group A: 1 tablet of active (COMP) twice daily • Group B: 1 placebo tablet twice daily • Group C: 1 tablet of lemon extract 250 mg twice daily • Group D: 1 tablet of blood orange extract 100 mg twice daily • Group E: 1 tablet of chromium 100 mcg twice daily
All the enrolled subjects were subjected, 14 days prior to enrolment (T-14), to a pre-enrolment visit with blood tests to assess meeting the inclusion criteria. The individuals who met the TO inclusion criteria underwent a randomization visit at which the respective treatment was assigned and blood tests were performed in relation to the reference parameters.
The study lasted 12 weeks.
At the end of treatment (T12), the subjects were subjected to an end-of-study visit and blood tests.
The parameters investigated in the study are: Body mass index, systolic and diastolic blood pressure, glycated haemoglobin (HbAlc) fasting plasma glucose (FPG), fasting insulinemia (FPI), HOMA-index, triglycerides, gammaGT, creatinine phosphokinase (CPK).
The treatment called “active” or “COMPOSITION (COMP)” consists of a 570 mg tablet consisting of 250 mg lemon extract, 100 mg blood orange extract, 100 mcg chromium (as chromium picolinate), in addition to excipients such as calcium phosphate, magnesium stearate, silicon dioxide, hydroxypropyl cellulose, mono- and di-glycerides of fatty acids, microcrystalline cellulose, yellow iron oxide as a dye, coating agents. The treatment called “placebo” consists of a tablet equal in shape, weight, colour size and flavour to the active tablet but containing “inert” material for the desired effect and consists of: microcrystalline cellulose, magnesium stearate, silicon dioxide, calcium phosphate, chlorophylline dye, yellow iron oxide dye, coating agents.
The treatments related to groups C, D and E consist of one tablet equal in appearance to the tablets of groups A and B but consisting of the single active ingredient, as described above in addition to excipients.
The treatment tablets were packaged in anonymous white bottles, showing only the batch number consisting of an alphanumeric code and the expiration date. Neither the investigator nor the study subjects knew the contents of the bottles. The bottles of each treatment were placed in cardboard boxes containing a letter in a sealed envelope with reference to the batch number and content, to be opened only in case of need, as in cases of serious adverse events. After randomization, each study participant was given the bottle with 60 tablets for the specific treatment of the group to which they belonged.
All the subjects were instructed to take one tablet in the morning and one in the evening for 12 weeks.

[7] = 12-Week follow-up, 1 tablet twice daily

Compound: COc1ccc([C@@H]2CC(=O)c3c(O)cc(O[C@@H]4O[C@H](CO[C@@H]5O[C@@H](C)[C@H](O)[C@@H](O)[C@H]5O)[C@@H](O)[C@H](O)[C@H]4O)cc3O2)cc1O [hesperidin, 3′,5,7-trihydroxy-4′-methoxy-flavanone-7-rhamnoglucoside]
water solubility [1]: poor water solubility
inflammation and blood pressure [2]: reduced inflammation and blood pressure
bioavailability [3]: low bioavailability
physical performance and oxidative stress [4]: improved physical performance and modulated oxidative stress
fasting glycaemia, insulinemia and glycated haemoglobin [5]: reduced fasting glycaemia, insulinemia and glycated haemoglobin

Compound: CN(C)C(=N)N=C(N)N [metformin]
reduction in the incidence of diabetes (incidence of diabetes): 31%

CPK [6, 7]: 133 ± 22 U/L
Gamma-GT [6, 7]: 27 ± 6 U/L
CPK ([6]; Baseline): 134 ± 25 U/L
Gamma-GT ([6]; Baseline): 24 ± 9 U/L
Compound: chromium picolinate
BMI [6, 7]: 26.2 ± 1.0 kg/m2
DBP [6, 7]: 84 ± 4 mmHg
FPG [6, 7]: 112 ± 4 mg/dL
FPI [6, 7]: 20.9 ± 1.1 μU/ml
HbA1c [6, 7]: 6.4 ± 0.1%
SBP [6, 7]: 130 ± 7 mmHg
TG [6, 7]: 152 ± 10 mg/dL
HOMA-IR ([6]; 12-Week follow-up, 1 tablet twice daily, HOMA-IR=(FPG*FPI)/405): 5.7 ± 1.8
BMI ([6]; Baseline): 26.2 ± 1.0 kg/m2
DBP ([6]; Baseline): 85 ± 6 mmHg
FPG ([6]; Baseline): 117 ± 5 mg/dL
FPI ([6]; Baseline): 22.9 ± 1.0 μU/ml
HbA1c ([6]; Baseline): 6.4 ± 0.3%
SBP ([6]; Baseline): 131 ± 5 mmHg
TG ([6]; Baseline): 159 ± 12 mg/dL
HOMA-IR ([6]; Baseline, HOMA-IR=(FPG*FPI)/405): 6.6 ± 1.2
Observed efficacy rate (%), Reduction of FPG (−) ([6]; Chromium alone 100 mcg, Group E of example 7, 12 weeks): −4.2%
reductions in HbAlc, FPG, FPI, HOMA-index, triglycerides (statistical significance) ([6]; after 12 weeks of treatment, with respect to baseline and placebo): did not show statistically significant reductions
reduction of fasting insulinemia (FPI) ([6]; after 12 weeks vs baseline): 4%
reduction of fasting plasma glucose (FPG) ([6]; after 12 weeks vs baseline): 4.2%
reduction of glycated haemoglobin (HbAlc) ([6]; after 12 weeks vs baseline): did not achieve reductions
reduction of HOMA index ([6]; after 12 weeks vs baseline, HOMA-IR=(FPG*FPI)/405): 13%
